From patent US8295924B2, “Transdermal systems for the delivery of ionic agents directly to open wounds and surgically repaired incisions” (Teikoku Pharma USA, Inc., priority 2006, dated 2012)

Conditions: hairless rats, pad saturated with 4% lidocaine, 2 cm^2 delivery pad, 0.3 mA for 24 hours, active iontophoretic probe; for the entire 24-hour period
From the text: An incision was made in hairless rats, which was then sutured closed.

Concentration of lidocaine generated in the incision: sufficient to cause anesthesia
SMILES: CCN(CC)CC(=O)Nc1c(C)cccc1C [lidocaine]
